Consider 3 compounds from paper PMC5115768, “Crystal Structure and Pyridoxal 5-Phosphate Binding Property of Lysine Decarboxylase from Selenomonas ruminantium” (PLoS ONE, 2016).

As a reminder, the Kd is the concentration at which binding is half-saturated. The low end stands for higher affinity, the high end for lower affinity. Broadly, the stoichiometry N is a count of units in the complex or per binding partner.

Experiment [1] concerns the target T1, SrLDC (lysine decarboxylase from Selenomonas ruminantium) (Pseudoselenomonas ruminantium, UniProt O50657).
T1 construct: gene ldc; residues 1-399 as printed (count probably includes the C-terminal 6xHis; sheet domain ends at Val393); pET-22b(+), C-terminal 6xHis kept; E. coli BL21(DE3)-T1R
Put plainly: isothermal titration calorimetry, independent binding model.

The target of experiment [2] is T1, SrLDC (lysine decarboxylase from Selenomonas ruminantium). Put plainly: X-ray crystal structure, […] Å. The experiment is classed as binding. To be noted: PLP-complexed crystal soaked with 10 mM L-lysine for 30 min; cadaverine observed instead; pH 4.2; active site at dimer interface.
Experiment [3] deals with Lysine decarboxylase from Selenomonas ruminantium (Selenomonas ruminantium). Put plainly: crystal structure; three crystal forms: apo I (P43212, one molecule per asymmetric unit, dimer generated by crystallographic symmetry), apo II (C2, a dimer in the asymmetric unit), PLP/cadaverine complex (P6322, one molecule per asymmetric unit); hanging-drop vapor diffusion at 20°C; protein in 40 mM Tris-HCl, pH 8.0.

T1 sequence (O50657 whole entry, the tested form may be a part): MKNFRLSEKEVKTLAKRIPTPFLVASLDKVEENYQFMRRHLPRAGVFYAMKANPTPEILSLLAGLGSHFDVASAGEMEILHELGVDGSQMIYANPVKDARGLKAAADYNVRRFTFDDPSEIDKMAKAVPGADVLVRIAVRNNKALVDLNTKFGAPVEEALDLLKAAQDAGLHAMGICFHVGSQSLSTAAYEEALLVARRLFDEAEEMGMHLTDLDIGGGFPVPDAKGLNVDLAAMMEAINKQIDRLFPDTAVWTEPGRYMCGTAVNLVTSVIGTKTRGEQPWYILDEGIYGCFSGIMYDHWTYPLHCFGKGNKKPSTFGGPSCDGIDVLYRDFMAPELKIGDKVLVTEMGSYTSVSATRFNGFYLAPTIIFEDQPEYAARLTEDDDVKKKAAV

In experiment [1], `Cc1ncc(COP(=O)(O)O)c(C=O)c1O` [PLP] registered a Kd of 72 µM. In the case of `NCCCCCN` [cadaverine], the “X-ray crystal structure, 2.5 Å” value in experiment [2] is recorded as “soaked the crystals of SrLDC complexed with PLP in L-lysine, a cadaverine molecule was observed”. In experiment [3], “Lysine decarboxylase from Selenomonas ruminantium (enzyme)” had a stoichiometry N of 2.
